Source: patent US12077503B2, “Substituted cyclic amides and their use as herbicides” (FMC CORPORATION, priority 2015, dated 2024)
Read-outs that look alike come from different tables or passages of the source.

Key:
Assay type in all cases: in vivo
[1] = system: pigweed (Amaranthus retroflexus); test: Test A preemergence; conditions: Amaranthus retroflexus, pre-emergence, 240 h, preemergence, 0 to 100 scale where 0 is no effect and 100 is complete control, read-out: Pigweed plant response rating; for pest or weed control at 125 g/ha: 125 g ai/ha; for pest or weed control at 500 g/ha: 500 g ai/ha
Kochia (Kochia scoparia) = test: Test A postemergence; conditions: Bassia scoparia, post-emergence, 240 h, postemergence; for pest or weed control at 125 g/ha: 125 g ai/ha; for pest or weed control at 500 g/ha: 500 g ai/ha, 0 to 100 scale, 0 is no effect, 100 is complete control
Method in brief: (§1)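 Greenhouse, ~10 d after spray; visual injury vs untreated controls, 0 = no effect, 100 = complete control. Preemergence: directed soil spray over planted seeds. Postemergence: plants 2–10 cm, 1–2 leaf stage. Loam/sand blend. Compound in non-phytotoxic solvent with surfactant.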

[2] = system: pigweed (Amaranthus retroflexus); test: Test A postemergence; conditions: Amaranthus retroflexus, post-emergence, 240 h, postemergence; for pest or weed control at 125 g/ha: 125 g ai/ha, visual injury vs untreated controls after approx. 10 d, 0 = no effect, 100 = complete control, read-out: Pigweed plant response rating (0 to 100 scale); for pest or weed control at 500 g/ha: 500 g ai/ha, 0 to 100 scale, 0 is no effect, 100 is complete control, read-out: Pigweed plant response rating
Method in brief: as §1

[3] = system: ragweed (common ragweed, Ambrosia elatior); test: Test A postemergence; conditions: Ambrosia artemisiifolia, post-emergence, 240 h, postemergence; for pest or weed control at 125 g/ha: 125 g ai/ha, visual injury vs untreated controls after approx. 10 d, 0 = no effect, 100 = complete control, read-out: Ragweed plant response rating (0 to 100 scale); for pest or weed control at 500 g/ha: 500 g ai/ha, 0 to 100 scale, 0 is no effect, 100 is complete control, read-out: Ragweed plant response rating
Method in brief: as §1

[4] = system: blackgrass (Alopecurus myosuroides); test: Test A postemergence; conditions: Alopecurus myosuroides, post-emergence, 240 h, postemergence; for pest or weed control at 125 g/ha: 125 g ai/ha; for pest or weed control at 500 g/ha: 500 g ai/ha, 0 to 100 scale, 0 is no effect, 100 is complete control
Method in brief: as §1

[5] = system: giant foxtail (Setaria faberii); test: Test A postemergence; conditions: Setaria faberi, post-emergence, 240 h, postemergence; for pest or weed control at 125 g/ha: 125 g ai/ha; for pest or weed control at 500 g/ha: 500 g ai/ha, 0 to 100 scale, 0 is no effect, 100 is complete control
Method in brief: as §1

[6] = system: ryegrass, Italian (Italian ryegrass, Lolium multiflorum); test: Test A postemergence; conditions: Lolium multiflorum, post-emergence, 240 h, postemergence; for pest or weed control at 125 g/ha: 125 g ai/ha, visual injury vs untreated controls after approx. 10 d, 0 = no effect, 100 = complete control, read-out: Ryegrass, Italian plant response rating (0 to 100 scale); for pest or weed control at 500 g/ha: 500 g ai/ha, 0 to 100 scale, 0 is no effect, 100 is complete control, read-out: Ryegrass, Italian plant response rating
Method in brief: as §1

[7] = system: Galium (catchweed bedstraw, Galium aparine); test: Test A postemergence; conditions: Galium, post-emergence, 240 h, postemergence; for pest or weed control at 125 g/ha: 125 g ai/ha; for pest or weed control at 500 g/ha: 500 g ai/ha, 0 to 100 scale, 0 is no effect, 100 is complete control
Method in brief: as §1

[8] = system: wheat (Triticum aestivum); test: Test A postemergence; conditions: Triticum aestivum, post-emergence, 240 h, postemergence; for plant injury at 125 g/ha: 125 g ai/ha, visual injury vs untreated controls after approx. 10 d, 0 = no effect, 100 = complete control, read-out: Wheat plant response rating (0 to 100 scale); for plant injury at 500 g/ha: 500 g ai/ha, 0 to 100 scale, 0 is no effect, 100 is complete control, read-out: Wheat plant response rating
Method in brief: as §1

corn (Zea mays) = test: Test A postemergence; conditions: Zea mays, post-emergence, 240 h, postemergence; for plant injury at 125 g/ha: 125 g ai/ha; for plant injury at 500 g/ha: 500 g ai/ha, 0 to 100 scale, 0 is no effect, 100 is complete control
Method in brief: as §1

[9] = system: barnyardgrass (Echinochloa crus-galli); test: Test A postemergence; conditions: Echinochloa crus-galli, post-emergence, 240 h, postemergence; for pest or weed control at 125 g/ha: 125 g ai/ha; for pest or weed control at 500 g/ha: 500 g ai/ha, 0 to 100 scale, 0 is no effect, 100 is complete control
Method in brief: as §1

[10] = system: sedge, umbrella (small-flower umbrella sedge, Cyperus difformis); test: Test B flooded paddy test; conditions: Cyperus difformis, 250 g ai/ha, Flood; 0 to 100 scale where 0 is no effect and 100 is complete control; read-out: Sedge, Umbrella plant response rating
Method in brief: (§2)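 Plants at 2-leaf stage flooded to 3 cm above soil, with compounds applied directly to paddy water and that depth maintained. Plants kept in greenhouse 13–15 d. Visual rating versus controls on a 0 (no effect) to 100 (complete control) scale.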

[11] = system: ducksalad (Heteranthera limosa); test: Test B flooded paddy test; conditions: Heteranthera limosa, 250 g ai/ha, Flood; 0 to 100 scale where 0 is no effect and 100 is complete control; read-out: Ducksalad plant response rating
Method in brief: as §2

rice (Oryra sativa) = test: Test B flooded paddy test; conditions: Oryza sativa, 250 g ai/ha, Flood; 0 to 100 scale where 0 is no effect and 100 is complete control; read-out: Rice plant response rating
Method in brief: as §2

[12] = system: barnyardgrass (Echinochloa crus-galli); test: Test B flooded paddy test; conditions: Echinochloa crus-galli, 250 g ai/ha, Flood; 0 to 100 scale where 0 is no effect and 100 is complete control; read-out: Barnyardgrass plant response rating
Method in brief: as §2

[13] = visual injury vs untreated controls after approx. 10 d, 0 = no effect, 100 = complete control, read-out: Kochia plant response rating (0 to 100 scale)
[14] = read-out: Kochia plant response rating
[15] = visual injury vs untreated controls after approx. 10 d, 0 = no effect, 100 = complete control, read-out: Blackgrass plant response rating (0 to 100 scale)
[16] = read-out: Blackgrass plant response rating
[17] = visual injury vs untreated controls after approx. 10 d, 0 = no effect, 100 = complete control, read-out: Foxtail, Giant plant response rating (0 to 100 scale)
[18] = read-out: Foxtail, Giant plant response rating
[19] = visual injury vs untreated controls after approx. 10 d, 0 = no effect, 100 = complete control, read-out: Galium plant response rating (0 to 100 scale)
[20] = read-out: Galium plant response rating
[21] = visual injury vs untreated controls after approx. 10 d, 0 = no effect, 100 = complete control, read-out: Corn plant response rating (0 to 100 scale)
[22] = read-out: Corn plant response rating
[23] = visual injury vs untreated controls after approx. 10 d, 0 = no effect, 100 = complete control, read-out: Barnyardgrass plant response rating (0 to 100 scale)
[24] = read-out: Barnyardgrass plant response rating

Compound | pest or weed control at 125 g/ha ([1]; approx. 10 d) [%] | pest or weed control at 500 g/ha [1] [%] | pest or weed control at 125 g/ha (Kochia (Kochia scoparia); [13]) [%] | pest or weed control at 500 g/ha (Kochia (Kochia scoparia); [14]) [%] | pest or weed control at 125 g/ha [2] [%] | pest or weed control at 500 g/ha [2] [%] | pest or weed control at 125 g/ha [3] [%] | pest or weed control at 500 g/ha [3] [%] | pest or weed control at 500 g/ha [4, 16] [%] | pest or weed control at 500 g/ha [5, 18] [%] | pest or weed control at 125 g/ha [6] [%] | pest or weed control at 500 g/ha [6] [%] | pest or weed control at 500 g/ha [7, 20] [%] | plant injury at 125 g/ha [8] [%] | plant injury at 500 g/ha (corn (Zea mays); [22]) [%] | pest or weed control at 500 g/ha [9, 24] [%] | pest or weed control at 250 g/ha [10] [%] | pest or weed control at 250 g/ha [11] [%] | pest or weed control at 250 g/ha (rice (Oryra sativa)) [%] | pest or weed control at 250 g/ha [12] [%] | other results
CCc1cc([C@H]2CNC(=O)[C@@H]2C(=O)Nc2cccc(F)c2F)cs1 [Compound 1155] | 0 | 30 | 0 | 0 | 0 | 0 | 0 | 40 | 0 | 70 | 0 | 20 | 60 | 20 | 30 | 90 | 0 | 100 | 20 | 50 | pest or weed control at 125 g/ha [4, 15]: 0%; pest or weed control at 125 g/ha [5, 17]: 30%; pest or weed control at 125 g/ha [7, 19]: 40%; plant injury at 500 g/ha [8]: 50%; plant injury at 125 g/ha (corn (Zea mays); [21]): 20%; pest or weed control at 125 g/ha [9, 23]: 80%
O=C1NC[C@H](c2cccc(I)c2)[C@H]1C(=O)Nc1ccccc1F [Compound 1160] | 0 | 20 | 0 | 20 | 0 | 0 | 0 | 0 | 50 | 90 | 20 | 20 | 60 | 20 | 80 | 90 | 0 | 80 | 20 | 0 | pest or weed control at 125 g/ha [4, 15]: 0%; pest or weed control at 125 g/ha [5, 17]: 80%; pest or weed control at 125 g/ha [7, 19]: 0%; plant injury at 500 g/ha [8]: 50%; plant injury at 125 g/ha (corn (Zea mays); [21]): 40%; pest or weed control at 125 g/ha [9, 23]: 80%
Cc1c(F)cccc1NC(=O)[C@H]1C(=O)N(C)C[C@@H]1c1ccc(F)cc1 [Compound 1235] | – | 90 | 30 | 50 | 0 | 50 | 0 | 30 | 40 | 90 | 0 | 30 | 70 | 40 | 100 | 100 | 75 | 90 | 80 | 100 | pest or weed control at 125 g/ha ([1]; visual injury rating, approximately 10 d): 30%; pest or weed control at 125 g/ha [4, 15]: 30%; pest or weed control at 125 g/ha [5, 17]: 80%; pest or weed control at 125 g/ha [7, 19]: 50%; plant injury at 125 g/ha (corn (Zea mays); [21]): 70%; pest or weed control at 125 g/ha [9, 23]: 90%
CN1C[C@H](c2ccc(C(F)(F)F)cc2)[C@@](F)(C(=O)Nc2cccc(F)c2F)C1=O (racemic) [Compound 1151] | 80 | 100 | – | 60 | 20 | 80 | 0 | 30 | 60 | 80 | 30 | 50 | 60 | 40 | 80 | 90 | 0 | 0 | 0 | 0 | pest or weed control at 125 g/ha (Kochia (Kochia scoparia); visual injury on 0 to 100 scale (0 no effect, 100 complete control), approx. 10 d, read-out: Kochia plant response rating): 30%; pest or weed control at 125 g/ha ([4]; visual injury on 0 to 100 scale (0 no effect, 100 complete control), approx. 10 d, read-out: Blackgrass plant response rating): 30%; pest or weed control at 125 g/ha ([5]; visual injury on 0 to 100 scale (0 no effect, 100 complete control), approx. 10 d, read-out: Foxtail, Giant plant response rating): 70%; pest or weed control at 125 g/ha ([7]; visual injury on 0 to 100 scale (0 no effect, 100 complete control), approx. 10 d, read-out: Galium plant response rating): 20%; plant injury at 500 g/ha [8]: 60%; plant injury at 125 g/ha (corn (Zea mays); visual injury on 0 to 100 scale (0 no effect, 100 complete control), approx. 10 d, read-out: Corn plant response rating): 60%; pest or weed control at 125 g/ha ([9]; visual injury on 0 to 100 scale (0 no effect, 100 complete control), approx. 10 d, read-out: Barnyardgrass plant response rating): 80%
